According to patent US20240360135A1, “IMIDAZO[1,2-B]PYRIDAZINYL COMPOUNDS AND USES THEREOF” (Sumitomo Pharma Oncology, Inc., priority 2021, published 2024):
pEC50, pIC50: −log10 of the molar value.

Experiments:
[1] = system: bleomycin-induced lung fibrosis; assay: Bleomycin-induced lung fibrosis model in mice; assay type: in vivo, C57BL/6J mice; details: day 21
Method: Overview. The most common animal model of pulmonary fibrosis is the bleomycin-induced lung fibrosis model in rodents. This model is commonly used to investigate biology and potential therapies for fibrotic diseases affecting the lung, such as idiopathic pulmonary fibrosis (IPF). Bleomycin, a cytotoxic drug, is administered to mice or rats, and causes direct cell injury triggered by DNA strand breaks, which leads to an overproduction of reactive oxygen species causing inflammation, pulmonary toxicity, activation of fibroblasts and subsequent fibrosis. Fibrosis is hallmarked by aberrant activation of lung epithelial cells and accumulation of fibroblasts and myofibroblasts with excessive production of extracellular matrix such as collagen.
Hydroxyproline is a major component of protein collagen, and plays a key role in the stability of the collagen triple helix. […]
Procedure. […] The snap frozen portion of the lung tissue was subjected to hydroxyproline quantification, which is used as a common biomarker of fibrosis. […] The histological sections were scored using a modified Ashcroft scale, the number of mononuclear cell aggregates and alveolar mixed infiltrates as well as the levels of collagen. The mice were weighed on day seven, fourteen, and twenty-one to monitor weight changes, and mortality and clinical observations were recorded daily. […]

[2] = biological target: T1, PIM1 (Homo sapiens, UniProt P11309); assay: RBC HotSpot kinase inhibition assay, PIM1; assay type: biochemical
T1 construct: purchased Invitrogen PV3503
Method: Reagents. Base Reaction Buffer: 20 mM Hepes (pH 7.5), 10 mM MgCl2, 1 mM EGTA, 0.01% Brij35, 0.02 mg/ml BSA, 0.1 mM Na3VO4, 2 mM DTT, 1% DMSO. The following kinases were used in the assay at the indicated concentrations:
The following substrates were used in combination with the indicated kinases in the assay at the indicated concentration:
No cofactors were added to any of the reactions.
• 1. Prepared substrate in freshly prepared Reaction Buffer. • 2. Delivered kinase into the substrate solution and gently mixed. • 3. Delivered test compound in 100% DMSO into the kinase reaction mixture by Acoustic technology (Echo550; nanoliter range), incubated for 20 minutes at room temperature. • 4. Delivered ^33P-ATP into the reaction mixture to initiate the reaction. • 5. Incubated for 2 hours at room temperature. • 6. Detected kinase activity by P81 filter-binding method.
The results of the RBC HotSpot™ kinase assay are set forth in Table 1, wherein “A” indicates an IC50<10 nM, “B” indicates an IC50 wherein 10 nM≤IC50≤100 nM, and “C” indicates an IC50>100 nM.

[3] = system: Caspase 3/7; assay: Apoptosis assay (Caspase 3/7) in A549 cells; assay type: cell-based; details: Homo sapiens, 24 hours, read-out: EC50, Caspase 3/7 activation
Text: Overview. PIM1 is a kinase, and has many downstream targets including Bad (BCL2 associated agonist of cell death), a member of the BCL-2 family. BCL-2 family members are regulators of the programmed cell death pathways. Proapoptotic activity of Bad is regulated through its phosphorylation. Dephosphorylated Bad forms a heterodimer with Bcl-2 and Bcl-xL, inactivating them and thus allowing Bax/Bak-triggered apoptosis. Bad phosphorylation is thus anti-apoptotic, and Bad dephosphorylation is pro-apoptotic. PIM inhibition is expected to result in a decrease of phosphorylated Bad, and an increase in apoptosis.
Procedure. Three thousand five hundred A549 cells (ATCC, CCL-185) were added per well of a 384-well plate in a total volume of twenty-five microliters and cultured in RPMI medium (no phenol red)+plus ten percent fetal calf serum. The next day, DMSO or test compound was added (90 nanoliters of test compound/DMSO per well) at 7 different concentrations starting at 10 micromolar (3.3-fold dilution). After 24 hours at 37° C. with 5% CO2, apoptosis was measured by using the Caspase 3/7 assay system (Promega, G8090). […] The cells were then incubated at room temperature for 30 minutes and luminescence was measured for each sample using a plate reading luminometer (Envision, PerkinElmer).

T1 sequence (P11309 whole entry): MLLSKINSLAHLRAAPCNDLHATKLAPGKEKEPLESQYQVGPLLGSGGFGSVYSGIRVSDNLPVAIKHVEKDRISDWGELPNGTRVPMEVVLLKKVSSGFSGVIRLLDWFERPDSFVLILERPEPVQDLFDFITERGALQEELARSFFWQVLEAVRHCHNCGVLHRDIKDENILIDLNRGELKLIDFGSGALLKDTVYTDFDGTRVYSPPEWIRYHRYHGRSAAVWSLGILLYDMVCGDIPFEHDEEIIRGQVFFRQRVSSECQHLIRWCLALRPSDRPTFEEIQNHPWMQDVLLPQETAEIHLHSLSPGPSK

| pIC50 [2] | pEC50 [3] | SMILES | Ashcroft score ([1]; 20 milligrams per kilogram twice a day) | reduction of hydroxyproline in lung tissue ([1]; 15 milligrams per kilogram twice a day) |
| --- | --- | --- | --- | --- |
| > 8.00 | 4.70 to 6.00 | Cc1cc(-c2cnc3ccc(NC45CCC(C(C)(C)O)(CC4)CC5)nn23)n[nH]1 [Compound 2, 2-(4-((3-(5-methyl-1H-pyrazol-3-yl)imidazo[1,2-b]pyridazin-6-yl)amino)bicyclo[2.2.2]octan-1-yl)propan-2-ol] | significantly reduced |  |
| > 8.00 | 4.70 to 6.00 | CC(C)(O)C12CCC(Nc3ccc4ncc(-c5cc(C6CC6)[nH]n5)n4n3)(CC1)CC2 [Compound 4, 2-(4-((3-(5-cyclopropyl-1H-pyrazol-3-yl)imidazo[1,2-b]pyridazin-6-yl)amino)bicyclo[2.2.2]octan-1-yl)propan-2-ol] |  | greatest and most statistically significant reduction |
